# According to patent US10105357B2, “Indication of antibiotic drugs for preparation of cancer inhibition pharmaceutical composition” (LAUNX BIOMEDICAL CO., LTD., priority 2014, dated 2018):
# Counter-ions that a name gives are not always drawn. Like-named read-outs stand apart in the source and are kept apart here.
# Experiments:
# Assay type in all cases: cell-based, human
# [1] = system: A375 (Amelanotic Melanoma); assay: Cell viability analysis, skin cancer A375; conditions: Homo sapiens
# [2] = system: HI650 (Lung Adenocarcinoma); assay: Cell viability analysis, lung cancer HI650; conditions: Homo sapiens
# [3] = system: LoVo (Colorectal Adenocarcinoma); assay: Cell viability analysis, colon cancer LoVo; conditions: Homo sapiens, LoVo
# [4] = system: HeLa (Cervix Adenocarcinoma); assay: Cell viability analysis, cervical cancer HeLa; conditions: Homo sapiens, HeLa
# [5] = system: AGS (Gastric Adenocarcinoma); assay: Cell viability analysis, gastric cancer AGS; conditions: Homo sapiens
# cancer cell lines = assay: Cell viability analysis (WST-1) on cancer cell lines; conditions: drug 10 μM, 72 hours, WST-1; Table 3
# [6] = system: HL-60 (Acute Promyelocytic Leukemia); assay: Cell viability analysis, leukemia HL-60; conditions: Homo sapiens
# [7] = system: MKN-45 (Gastric Adenocarcinoma); assay: Cell viability analysis, gastric cancer MKN-45; conditions: Homo sapiens
# [8] = system: TSGH-8301 (Urinary Bladder Carcinoma); assay: Cell viability analysis, bladder cancer TSGH-8301; conditions: Homo sapiens
# [9] = system: A549 (Lung Adenocarcinoma); assay: Cell viability analysis, lung cancer A549; conditions: Homo sapiens
# [10] = system: MCF7 (Mammary Gland, Adenocarcinoma); assay: Cell viability analysis, breast cancer MCF7; conditions: Homo sapiens
# [11] = system: HepG2 (Hepatocellular Carcinoma); assay: Cell viability analysis, hepatic cancer HepG2; conditions: Homo sapiens
# [12] = system: PC3 (p53−) (Prostate Adenocarcinoma); assay: Cell viability analysis, prostate cancer PC3; conditions: Homo sapiens, 72 h, read-out: cell viability (survival rate), PC3, drug 10 μM, 72 hours, WST-1, OD450 nm
# [13] = A-375, 72 h, read-out: cell viability (survival rate), A375, drug 10 μM, 72 hours, WST-1, OD450 nm
# [14] = NCI-H1650, 72 h, read-out: cell viability (survival rate), H1650, drug 10 μM, 72 hours, WST-1, OD450 nm
# [15] = 72 h, read-out: cell viability (survival rate), LoVo, drug 10 μM, 72 hours, WST-1, OD450 nm
# [16] = 72 h, read-out: cell viability (survival rate), HeLa, drug 10 μM, 72 hours, WST-1, OD450 nm
# [17] = 72 h, read-out: cell viability (survival rate), AGS, drug 10 μM, 72 hours, WST-1, OD450 nm
# [18] = HL-60, 72 h, read-out: cell viability (survival rate), HL-60, drug 10 μM, 72 hours, WST-1, OD450 nm
# [19] = MKN-45, 72 h, read-out: cell viability (survival rate), MKN-45, drug 10 μM, 72 hours, WST-1, OD450 nm
# [20] = 72 h, read-out: cell viability (survival rate), TSGH, drug 10 μM, 72 hours, WST-1, OD450 nm
# [21] = A549, 72 h, read-out: cell viability (survival rate), A549, drug 10 μM, 72 hours, WST-1, OD450 nm
# [22] = MCF7, 72 h, read-out: cell viability (survival rate), MCF7, drug 10 μM, 72 hours, WST-1, OD450 nm
# [23] = HepG2, 72 h, read-out: cell viability (survival rate), HepG2, drug 10 μM, 72 hours, WST-1, OD450 nm
Compound,"viability at 10 µM [1, 13] [%]","viability at 10 µM [2, 14] [%]","viability at 10 µM [3, 15] [%]","viability at 10 µM [4, 16] [%]","viability at 10 µM [5, 17] [%]",inhibition effect on different cancer cell lines (cancer cell lines),"viability at 10 µM [6, 18] [%]","viability at 10 µM [7, 19] [%]","viability at 10 µM [8, 20] [%]","viability at 10 µM [9, 21] [%]","viability at 10 µM [10, 22] [%]","viability at 10 µM [11, 23] [%]",viability at 10 µM [12] [%],further results
Nc1ccn([C@H]2CC[C@@H](CO)O2)c(=O)n1 [Zalcitabine],83.5,86.4,91,89.2,69.1,significant inhibition effect,119,70.4,79,66.3,52.7,96.9,–,–
CC(=O)OCC1=C(C(=O)O)N2C(=O)[C@@H](NC(=O)CSc3ccncc3)[C@H]2SC1 [Cephapirin Sodium],50.2,76.2,92.8,69.2,79.8,significant inhibition effect,84.3,69.1,78.2,57.7,49.5,79.8,–,–
Fc1ccc([C@@H]2CCNC[C@H]2COc2ccc3c(c2)OCO3)cc1 [Paroxetine HCl],31.9,44.1,–,42.1,21.5,significant inhibition effect,79.1,49.2,56.4,80.1,56.4,–,70.6,–
"CCn1cc(C(=O)O)c(=O)c2ccc(C)nc21 [Nalidixic acid (NegGram), Nalidixic acid]",87.9,72,91.5,95.8,57.3,significant inhibition effect,113,54.9,46.3,83.8,86,96.8,–,–
C=C(NC(=O)C(=C)NC(=O)c1csc(C2=N[C@@H]3c4csc(n4)[C@H]4NC(=O)c5csc(n5)[C@H]([C@](C)(O)[C@@H](C)O)NC(=O)[C@H]5CSC(=N5)/C(=C/C)NC(=O)[C@H]([C@@H](C)O)NC(=O)c5csc(n5)[C@]3(CC2)NC(=O)[C@H](C)NC(=O)C(=C)NC(=O)[C@H](C)NC(=O)[C@H]([C@@H](C)CC)N[C@@H]2C=Cc3c([C@H](C)O)cc(nc3[C@H]2O)C(=O)O[C@@H]4C)n1)C(N)=O [Thiostrepton],–,–,–,–,–,significant inhibition effect,–,–,–,–,–,–,–,"viability at 10 µM ([1]; A-375, drug 10 μM, 72 hours, WST-1, OD450 nm, read-out: cell viability (survival rate), A375): 27.6%; viability at 10 µM ([2]; NCI-H1650, drug 10 μM, 72 hours, WST-1, OD450 nm, read-out: cell viability (survival rate), H1650): 45.4%; viability at 10 µM ([3]; drug 10 μM, 72 hours, WST-1, OD450 nm, read-out: cell viability (survival rate), LoVo): 52.9%; viability at 10 µM ([4]; drug 10 μM, 72 hours, WST-1, OD450 nm, read-out: cell viability (survival rate), HeLa): 37.8%; viability at 10 µM ([5]; drug 10 μM, 72 hours, WST-1, OD450 nm, read-out: cell viability (survival rate), AGS): 25.7%; viability at 10 µM ([6]; HL-60, drug 10 μM, 72 hours, WST-1, OD450 nm, read-out: cell viability (survival rate), HL-60): 37.8%; viability at 10 µM ([7]; MKN-45, drug 10 μM, 72 hours, WST-1, OD450 nm, read-out: cell viability (survival rate), MKN-45): 56.7%; viability at 10 µM ([8]; drug 10 μM, 72 hours, WST-1, OD450 nm, read-out: cell viability (survival rate), TSGH): 20.1%; viability at 10 µM ([9]; A549, drug 10 μM, 72 hours, WST-1, OD450 nm, read-out: cell viability (survival rate), A549): 62.2%; viability at 10 µM ([10]; MCF7, drug 10 μM, 72 hours, WST-1, OD450 nm, read-out: cell viability (survival rate), MCF7): 65%; viability at 10 µM ([11]; HepG2, drug 10 μM, 72 hours, WST-1, OD450 nm, read-out: cell viability (survival rate), HepG2): 49.2%"
Cc1ccnc(NS(=O)(=O)c2ccc(N)cc2)n1 [Sulfamerazine],80.4,108,99.6,92.3,87.9,significant inhibition effect,105,87.4,90,103,79.8,–,78.4,–
C[C@@H](c1ncncc1F)[C@](O)(Cn1cncn1)c1ccc(F)cc1F [Voriconazole],102,102,–,92.6,86.1,significant inhibition effect,94.3,104,53.9,82.9,90.1,–,97,–
COc1c(N2C[C@@H]3CCCN[C@@H]3C2)c(F)cc2c(=O)c(C(=O)O)cn(C3CC3)c12 [Moxifloxacin hydrochloride],94,70.9,102,92,77.1,significant inhibition effect,97.1,89,75.7,95.5,90.3,–,69.1,–
Nc1ccc(S(N)(=O)=O)cc1 [Sulfanilamide],84.6,66.7,85,82.1,65.3,significant inhibition effect,112,59.1,76.5,82.7,105,–,111,–
"Cc1cc2nc3c(=O)[nH]c(=O)nc-3n(C[C@H](O)[C@H](O)[C@H](O)CO)c2cc1C [Riboflavin (Vitamin B2), Riboflavin]",89.7,51.1,83.3,128,74.9,significant inhibition effect,90,87.3,79.7,67.6,–,–,79.4,–
"O=c1[nH]cnc2c1ncn2[C@H]1CC[C@@H](CO)O1 [Didanosine (Videx), Didanosine]",77.2,64.2,95.1,80.3,48.7,significant inhibition effect,126,62,76.7,67.5,78.4,119,–,–
[H]/N=C(/N)NS(=O)(=O)c1ccc(N)cc1 [Sulfaguanidine],145,95.6,78.9,113,84,significant inhibition effect,99.1,83.5,107,82.2,92.6,96.1,–,–
"C[C@]12CCC(=O)C=C1CC[C@@H]1[C@@H]2[C@@H](O)C[C@@]2(C)[C@H]1CC[C@]2(O)C(=O)CO [Hydrocortisone (Cortisol), Hydrocortisone]",87.6,66.1,83.3,86.1,77.5,significant inhibition effect,105,81.3,125,73.6,76.9,109,–,–
